# Source: patent US9073982B2, “Targets for regulation of angiogenesis” (The University of North Carolina at Chapel Hill, priority 2008, dated 2015)
# What was measured:
# HCAEC [1] = assay: Scratch wound assay on HCAEC; type: cell-based, human; settings: Jak3 20 nM-200 pM
# Description: HCAEC were plated at 10,000 cells/well onto a 96 well plate and allowed to become confluent in EGM-2 with BulletKit growth supplements. The cells were quiesced in EGM-2 with 0.1% FBS without BulletKit growth supplements for 18 hours. The wound was formed using a 1 ml pipette tip. A 20 nM-200 pM dose curve of recombinant human Jak3 (Millipore, Temecula, Calif.) was added to the cells. Each concentration was performed in triplicate and the experiment was repeated three times with similar results. Migration distance was measured at 12 hours and then every 4 hours until wound closure in all wells. Data were recorded as percent of wound closed at each time point.
# [2] = system: Human coronary artery endothelial cells (HCAEC); assay: Hypoxia-induced endothelial cell apoptosis assay (caspase 3); type: cell-based; settings: Jak3 20 nM-200 pM, 36 hours hypoxia
# Description: Human coronary artery endothelial cells (HCAEC) were used for apoptosis assays because apoptosis could not be induced in the MEC cells. HCAECs were grown in 10-cm dishes (Becton Dickinson, Franklin Lakes, N.J.) with endothelial cell basal medium-2 (EGM-2) BulletKit media (Clonetics, San Diego, Calif.) until 80% confluent. Medium was then replaced with optimal medium according to different assays. The hypoxic condition was created by incubating HCAECs in EGM-2 media without BulletKit growth factors at 37° C. in a hypoxia chamber with an atmosphere of 5% CO2/95% N2. The oxygen level in the chamber was controlled to 1.0%. Apoptosis was determined by measuring the activity of cleaved caspase 3 by using a caspase-specific fluorogenic substrate according to the protocol for the Caspase 3 Assay Kit (Sigma). HCAECs were lysed after treatment with concentrations of SFRP2 (70 pM and 700 pM) for 36 h under hypoxia. […] The enzyme-catalyzed release of 7-amino-4-methyl coumarin (AMC) was measured by a fluorescence microplate reader.
# HCAEC were seeded onto a 96 well plate at 2,000 cells/well in EGM-2 with BulletKit growth supplements. […] Apoptosis was determined by measuring the activity of cleaved caspase 3 by using a caspase-specific fluorogenic substrate according to the protocol for the Apo-ONE® Homogeneous Caspase-3/7 Assay (Promega, Madison, Wis.). […]
# HCAEC [3] = assay: Endothelial cell proliferation assay (MTT); type: cell-based, human; settings: Jak3, 48 hours
# Description: HCAEC were seeded on a 96 well plate at a concentration of 2000 cells/well and allowed to proliferate for 24 hrs in EGM-2 with BulletKit growth supplements. The cells were then quiesced in EGM-2 with 0.1% FBS without BulletKit growth supplements for 18 hours. Media was replaced with fresh EGM-2 with BulletKit growth supplements and the cells were treated in triplicate with: PBS alone; recombinant murine VEGF (60 ng/mL); or Jak3 (at a concentration of 200 nM-200 pM). After 48 h, 10 μl of the colorimetric compound 3-(4,5-dimethylthiazol-2-yl)-2,5-diphenyl tetrazolium bromide (MTT) (5 mg/mL) was added to each well and allowed to incubate for 4 h at 37° C. All but 25 μl of media in each well was removed and 50 μl dimethyl sulfoxide (DMSO) was added. Following a 10 min incubation at 37° C., the A540 was measured using a microplate reader. A540 was converted to number of cells based on a standard curved created by seeding a 96-well plate with known concentrations of cells, as determined by hemocytometry, and measuring their A540 after 4 hrs incubation with MTT.
# HCAEC [4] = assay: Tube formation assay on HCAEC; type: cell-based, human; settings: Jak3 20 nM-200 pM, 8 hours
# Description: ECMATRIX (Chemicon, Temecula, Calif.) was thawed, diluted, and solidified in a 96 well plate according to the manufacturer's instructions. HCAEC were seeded onto the matrix at 2,000 cells/well in 150 μl of EGM-2 with 5% FBS without BulletKit growth supplements. A 20 nM-200 pM dose curve of recombinant human Jak3 was added to the cells and the plates were returned to 37° C., 5% CO2 for 8 hours. Each concentration was performed in triplicate and the experiment was repeated three times with similar results. Wells were evaluated under a Nikon Eclipse TS100 microscope at 4× magnification and pictures were taken with a Nikon CoolPix 995 digital camera. Angiogenesis was quantified by counting branch points in the resulting image.
# The role of STAT3 activation in Jak3-mediated tube formation was evaluated using a small peptide inhibitor of phosphorylated STAT3 (P-STAT3). ECMATRIX was solidified in wells of a 96 well plate. HCAEC were seeded onto the matrix at 2,000 cells/well in 150 μl of EGM-2 with 5% FBS without additional BulletKit growth supplements. Wells were treated in triplicate with: PBS alone, PBS+100 μM P-STAT3 inhibitor, 20 nM Jak3, or 20 nM Jak3+100 μM P-STAT3 inhibitor. Wells were photographed at 8 hours and tube formation was quantified by counting branch points in the resulting image.
# [5] = system: chick chorioallantoic membrane; assay: Chick chorioallantoic membrane (CAM) assay; type: in vivo, chicken; settings: 100 ng per disk, evaluated day 3 after disk placement
# Description: On day 4, the eggs were cracked into sterile Petri dishes and incubated at 99° F. in 3% CO2, 65% humidity. For application of drug onto the CAM, Whatman grade 1 filter paper was cut into circles with a 6 mm diameter paper punch and autoclaved. To decrease inflammatory effects of the disk, the discs were soaked in 1 ml of 3.0 mg/ml cortisone acetate in absolute ETOH and air dried for 60 min in a laminar flow hood. On day 8, 5 disks per egg were placed on the outer third of the CAM, 2-3 mm from a vessel. Control PBS 7 μl was added to the discs for the control CAMs, and SFRP2 100 ng/7 μl PBS was added to the disks for the treated CAMs (n=5 control disks and 5 SFRP2-treated disks). The CAMs were evaluated under a stereomicroscope on day 3 after disk placement. Pictures were taken with a Wild M-4 70 Macrosystem, and angiogenesis was quantified using Metamorph Software with an angiogenesis module.
# Fertilized chickens eggs (NC State University Chicken Research Faint) were incubated at 100.4° F. in an egg turner (Model#1588 Genesis Hova-Bator, GQF Mfg. Co., Inc.) for 3 days. […] CAMs were evaluated under a stereomicroscope on day 3 after disk placement. Pictures were taken with a Wild M-4 70 Macrosystem and angiogenesis was quantified using Metamorph Software with an angiogenesis module.
substance,measurement,setting,value
Jak3: recombinant human Jak3 (Millipore),endothelial cell migration (percent of wound closed),HCAEC [1],increased endothelial cell migration
same,hypoxia induced endothelial cell apoptosis (caspase 3 activity),[2],protected against hypoxia induced endothelial cell apoptosis
same,cell proliferation,HCAEC [3],increased cell proliferation
same,endothelial tube formation (branch points),HCAEC [4],induced by Jak3 in a concentration-dependent manner
same,"angiogenesis on the CAM (branch points, segments, tube area, tube length)",[5],induced angiogenesis on the CAM
